Laboratory results from US10213486B2, “Formulations of diluted amino acid segments and methods for making same” (priority 2011, dated 2019).
Converted amounts (≈) assume the structure as drawn. Peptide text beside a SMILES is read from it.

Test: physchem
Excerpt: The segments were synthesized at a cGMP facility using standard techniques for amino acid synthesis.

CC[C@H](C)[C@H](NC(=O)[C@@H]1CCCN1C(=O)[C@H](C)NC(=O)CNC(=O)[C@@H]1CCCN1C(=O)[C@H](CCC(N)=O)NC(=O)[C@H](CO)NC(=O)[C@H](Cc1ccccc1)NC(=O)[C@H](Cc1ccccc1)NC(=O)[C@@H]1CCCN1C(=O)[C@H](CC(N)=O)NC(=O)[C@H](CCC(=O)O)NC(=O)[C@H](CCC(N)=O)NC(=O)[C@H](CC(C)C)NC(=O)[C@@H](NC(=O)[C@H](CS)NC(=O)[C@H](CCC(=O)O)NC(=O)[C@@H]1CCCN1C(=O)[C@H](CS)NC(=O)[C@H](CC(=O)O)NC(=O)[C@H](CCC(N)=O)NC(=O)[C@@H](NC(=O)[C@H](CC(=O)O)NC(=O)[C@@H]1CCCN1C(=O)[C@H](C)N)C(C)C)[C@@H](C)O)C(=O)O [first amino acid segment] (H-APDVQDCPECTLQENPFFSQPGAPI-OH)
solubility: 1 mg/mL (≈ 370 µM)
